Laboratory results taken from PMC6757289, “Design and Characterization of SGK3-PROTAC1, an Isoform Specific SGK3 Kinase PROTAC Degrader” (ACS Chemical Biology, 2019).

Columns and labels:
SGK3 = target: T1, SGK3 (Homo sapiens, UniProt Q96BR1); assay: TMT global proteomic analysis of HEK293 cells; format: cell-based; design: global proteomic analysis of HEK293 cells treated in the presence or absence of 0.3 μM SGK3-PROTAC1; endogenous in cells; host or cells: HEK293; conditions: HEK293, 0.3 μM, 8 h
T1 sequence (Q96BR1 1-496): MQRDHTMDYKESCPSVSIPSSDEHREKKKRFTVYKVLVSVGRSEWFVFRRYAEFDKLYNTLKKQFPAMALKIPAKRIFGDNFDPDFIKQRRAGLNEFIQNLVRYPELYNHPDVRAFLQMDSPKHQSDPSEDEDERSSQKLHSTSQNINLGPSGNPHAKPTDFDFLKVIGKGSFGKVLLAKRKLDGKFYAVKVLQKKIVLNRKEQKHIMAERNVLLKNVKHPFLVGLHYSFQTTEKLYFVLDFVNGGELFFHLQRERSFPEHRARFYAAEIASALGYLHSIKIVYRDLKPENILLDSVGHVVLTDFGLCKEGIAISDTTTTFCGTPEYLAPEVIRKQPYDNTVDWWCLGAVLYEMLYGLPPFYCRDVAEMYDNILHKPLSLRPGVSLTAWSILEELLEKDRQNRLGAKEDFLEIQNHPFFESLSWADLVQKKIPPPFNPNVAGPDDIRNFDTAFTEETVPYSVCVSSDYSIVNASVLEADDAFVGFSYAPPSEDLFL
Procedure: (§1) To establish the specificity of SGK3-PROTAC1 employing an unbiased approach, we performed quantitative Tandem–Mass–Tag (TMT)-labeled global proteomic analysis of HEK293 cells treated in the presence or absence of 0.3 μM SGK3-PROTAC1 compared to either 0.3 μM cisSGK3-PROTAC1 or DMSO for 8 h. Experiments were undertaken in triplicate, and analysis in Proteome Discoverer v2.2 using the Mascot search engine allowed relative quantification of 8766 proteins.
(§2) Figure 4 TMT proteomic analysis of HEK293 cells treated with SGK3-PROTAC1. (A) Cells were treated with DMSO (control), SGK3-PROTAC1 (0.3 μM), or cisSGK3-PROTAC1 (0.3 μM) for 8 h and lysed. Lysates were subjected to immunoblot analysis with the indicated antibodies. (B) Lysates were examined by quantitative proteomics. […]
(§3) Cell culture and proteomic sample preparation
(§4) Cells pellets were lysed with 2 ml of lysis buffer (8 M Urea, 50 mM Ammonium bicarbonate containing protease inhibitor and phosphatase inhibitor). The sample were left on ice for 15 min and were then sonicated for 5 min in ice-cold water bath under high intensity with 30 sec on and off. After sonication, benzonase® endonuclease (Merck Millipore) with the volume ratio of 1: 100 were added into the lysate to degrade DNA and RNA. The lysate were then centrifuged at 12,000 rpm for 15 min at 4 °C, and supernatants were transferred into new eppendorf tubes. The protein concentration were measured with BCA assay (Pierce™ BCA Protein Assay Kit, Thermo). The lysate from each sample was reduced with 5 mM DTT at 45 °C for 30 min. Lysates were briefly centrifuged and were cool down to room temperature before alkylation in the dark with 10 mM iodoacetamide at room temperature. The alkylation was then quenched by the addition of 5 mM DTT. Samples were first digested by Lys-C with the weight ratio of 1:200 (w/w) for 4 h at 30 °c. Then, sample were diluted with 50 mM ammonium bicarbonate to 1.5 M Urea concentration. Samples were then digested with trypsin (Pierce trypsin, Thermo) at an enzyme to protein ratio of 1:50 (w/w) at room temperature with gentle shaking for overnight.
(§5) The digest was stopped by the addition of 1% TFA (v/v), centrifuged at 10,000 g for 10 min at room temperature.
(§6) The supernatant were desalted on 200 mg SepPak tC18 cartridge (Waters). Desalted peptides were dried by vacuum centrifugation using Speedvac (Thermo).
(§7) TMT labelling and Basic C18 reverse phase (bRP) chromatography fractionation Each sample (200 μg of peptides each) was re-suspended in 100 μL of 100 mM TEAB buffer. The TMT labelling reagents were equilibrated to room temperature and 41 μL anhydrous acetonitrile was added to each reagent channel and softly vortexed for 10 min. Peptides were transferred to the corresponding TMT channels and incubated for 1 h at room temperature. The reaction was quenched with 8 μL of 5% hydroxylamine. To ensure complete labelling, 1 µg of labelled samples from each channel were analyzed by LC-MS/MS prior to mix. After evaluation, the complete TMT labelled 9 samples were then combined, acidified and dried. Sep-Pak desalting was then performed and the elution was dried to completeness.
Ultimate 3000 high-pressure liquid chromatography (HPLC) system (Dionex) were used for basic C18 reverse phase chromatography fractionation operating at 569 µL/min with two buffers: buffer A (10 mM ammonium formate, pH 10) and buffer B (80% ACN, 10 mM ammonium formate, pH 10). The desalted mixture of TMT-labelled peptides were resuspended in 200 µL of buffer A (10 mM ammonium formate, pH10) and separated on a C18 reverse phase column (4.6 × 250 mm, 3.5 μm, Waters) with a gradient from 3% B to 12.5 % B in 10 min, […]
min, 100% for 5 min, ramping to 3% B in 2.5 min and then 3% for 10 min. A total of 90 fractions (1 min per fraction) were collected before further concatenation into 30 final fractions. Each fraction was then dried and desalted over a C18 StageTip prior to analysis by mass spectrometry. […]

CDK18 = target: T2, CDK18 (Homo sapiens, UniProt Q07002); assay: TMT global proteomic analysis of HEK293 cells; format: cell-based; conditions: HEK293, 0.3 μM, 8 h
T2 construct: global proteomic analysis of HEK293 cells treated in the presence or absence of 0.3 μM SGK3-PROTAC1; endogenous in cells; host or cells: HEK293
T2 sequence (Q07002 whole entry): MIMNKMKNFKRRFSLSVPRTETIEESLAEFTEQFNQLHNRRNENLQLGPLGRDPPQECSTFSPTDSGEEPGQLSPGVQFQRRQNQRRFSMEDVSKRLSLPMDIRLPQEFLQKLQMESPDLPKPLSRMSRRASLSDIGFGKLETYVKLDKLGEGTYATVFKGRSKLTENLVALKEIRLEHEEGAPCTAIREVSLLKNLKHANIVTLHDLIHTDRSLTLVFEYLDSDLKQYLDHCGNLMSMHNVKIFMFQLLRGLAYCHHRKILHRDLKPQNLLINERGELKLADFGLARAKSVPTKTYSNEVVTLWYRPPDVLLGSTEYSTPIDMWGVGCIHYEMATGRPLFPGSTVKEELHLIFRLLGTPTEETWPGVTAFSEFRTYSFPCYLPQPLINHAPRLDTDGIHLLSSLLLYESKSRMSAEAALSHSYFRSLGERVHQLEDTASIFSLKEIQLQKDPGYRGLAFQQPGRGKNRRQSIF
Procedure: as §1, §2, §3, §4, §5, §6, §7
Ultimate 3000 high-pressure liquid chromatography (HPLC) system (Dionex) were used for basic C18 reverse phase chromatography fractionation operating at 569 µL/min with two buffers: buffer A (10 mM ammonium formate, pH 10) and buffer B (80% ACN, 10 mM ammonium formate, pH 10). […]

In the case of `Cc1ccc(F)c(S(=O)(=O)Nc2ccc(-c3nc(OC[C@H]4CN(CCCCCCOCCOCCOCC(=O)N[C@H](C(=O)N5C[C@H](O)C[C@H]5C(=O)NCc5ccc(-c6scnc6C)cc5)C(C)(C)C)CCO4)c4cn[nH]c4n3)cc2)c1` [SGK3-PROTAC1], the “Abundances (Grouped)” value (SGK3) is reported as 60.6, the “Ratio: (SGK3-PROTAC1) / (cSGK3-PROTAC1)” value (SGK3) is reported as 0.526 and the “Ratio: (compound) / (DMSO)” value (SGK3) is reported as 0.484. The “selectivity in global proteome (8766 proteins quantified)” value (SGK3; vs cisSGK3-PROTAC1 or DMSO) was “only SGK3 expression being significantly reduced”, the “Abundances (Grouped)” value (CDK18) was 66.1 and the “Ratio: (SGK3-PROTAC1) / (cSGK3-PROTAC1)” value (CDK18) was 0.727. For the same compound, the “Ratio: (compound) / (DMSO)” value (CDK18) was 0.652.
For `Cc1ccc(F)c(S(=O)(=O)Nc2ccc(-c3nc(OC[C@H]4CN(CCCCCCOCCOCCOCC(=O)N[C@H](C(=O)N5C[C@@H](O)C[C@H]5C(=O)NCc5ccc(-c6scnc6C)cc5)C(C)(C)C)CCO4)c4cn[nH]c4n3)cc2)c1` [cisSGK3-PROTAC1], the “Abundances (Grouped)” value (SGK3) was 115.2, the “Ratio: (compound) / (DMSO)” value (SGK3) was 0.949 and the “Abundances (Grouped)” value (CDK18) was 126.5. For the same compound, the “Ratio: (compound) / (DMSO)” value (CDK18) was 1.144.
